Non-standard residues stand in square brackets, D forms with d. Residues, ends and D or L forms follow the SMILES beside them. *: point of attachment. Trp(6-Cl) = N[C@@H](Cc1c[nH]c2cc(Cl)ccc12)C(=O)O; Pip = O=C(O)[C@@H]1CCCCN1; ClAc = O=C(CCl)*
Tests used:
[1] = biological target: T1, Pin1 in KPC cells (Mus musculus, UniProt Q9QUR7); assay: Pin1 degradation by western blot in KPC cells; format: cell-based; conditions: 0.5-15 μM for 24 h, Pin1 relative to β-actin
T1 construct: endogenous in cells; host or cells: KPC
Description: To ascertain that the plasma-stable agent 164B8 retained its ability to induce Pin1 degradation in cells, we tested it in three pancreatic cancer cell lines—human BxPC3 and MIA PaCa-2, and the mouse pancreatic cancer cell line KPC—using western blot analysis (Figure 2).
Figure 2 Degradation of Pin1 in different cell lines in response to 164B8 treatment BxPC3, MIA PaCa-2, and KPC were each treated with 0.1% DMSO and concentrations of 164B8 ranging between 0.5 and 15 μM for 24 h, and Pin1 levels were quantified with respect to β-actin using a specific anti-Pin1 antibody and western blotting (uncropped blots are reported in Figure S6).
At the end of the treatments, cells were lysed with a lysis buffer containing 20 mM Tris (pH 7.4), 1% Triton X-100, 5 mM EDTA, 0.1% sodium dodecyl sulfate (SDS), 1% IGEPAL, 0.5% sodium deoxycholate, 120 mM NaCl, and a protease inhibitor cocktail and PhosSTOP (Sigma-Aldrich). Lysates were then centrifuged at 16,000 × g for 20 min at 4°C, and the supernatants were collected. Protein concentrations were determined using the Pierce BCA Protein Assay Kit (Thermo Fisher Scientific) according to the manufacturer’s protocol. For traditional western blotting (Figure 2), samples were loaded onto precast Bis-Tris gels and subsequently transferred onto PVDF membranes. […]

[2] = 164B8 concentration in tissues of treated mice by LC-MS; format: in vivo, mouse; conditions: for 164B8 conc. (ng/mg) Predicted means (LS means) Adjacent Peritoneum / 164B8 conc. (ng/mg) Predicted means (LS means) Liver / 164B8 conc. (ng/mg) Predicted means (LS means) Tumor: 6 h after last dose, LC-MS, two-way ANOVA LS mean (Figure 7B)
Description: To further verify that the observed activity was due to direct inhibition of Pin1 in vivo, we analyzed tumor tissues to measure 164B8 levels and Pin1 degradation in both tumor and normal tissues. At day 14, 6 h after the final intraperitoneal dose, 164B8 was detected and quantified in tumor tissue via liquid chromatography-mass spectrometry (LC-MS). Significant levels of 164B8 were detected in the liver, tumor-adjacent peritoneum, and tumor tissues collected from mice treated with either 30 mg/kg or 60 mg/kg (Figure 7A). The average tumor values were 0.62 ng/mg for mice treated with 30 mg/kg 164B8 and approximately 8 ng/mg for those treated with 60 mg/kg 164B8, compared with the vehicle control (0.03 ng/mg). In mice treated with 164B8 at 60 mg/kg, we observed enrichment of 164B8 in tumor tissues compared with adjacent normal tissues (mean: 3.65 vs. 8 ng/mg, p = 0.035) and normal liver tissues (mean: 0.75 vs. 8 ng/mg, p = 0.0003). For the 30 mg/kg dose, drug levels were numerically higher in tumor tissue (0.62 ng/mg) compared with adjacent normal peritoneum (0.11 ng/mg) and liver (0.10 ng/mg), although these differences were not statistically significant after adjustment for multiple comparisons (Figures 7A and 7B). Likewise, Pin1 levels in tumor tissues were detected via western blotting (Figure 7C).
Figure 7 Determination of Pin1 levels and 164B8 concentration in treated mice Pin1 drug concentration and Pin1 levels in tumors were measured 6 h after the last dose of 164B8 treatment by LC-MS (A and B) and western blot (C), respectively. Drug concentrations among the three groups were compared using two-way ANOVA in Prism, accounting for interactions (D). Tukey’s multiple comparison test was used to compare multiple groups (∗∗∗p = 0.0003, ∗p = 0.035). Pin1 levels were compared among the three groups after normalizing to β-actin (loading control) using one-way ANOVA and adjusting for multiple comparisons (∗∗∗p < 0.001). TEXT PRINTED IN THE PICTURE: (B) 164B8: 164B8 conc. (ng/mg) Predicted means (LS means) Liver: 0.1017 (30mg/kg); 164B8 conc. (ng/mg) Predicted means (LS means) Adjacent Peritoneum: 0.1133 (30mg/kg); 164B8 conc. (ng/mg) Predicted means (LS means) Tumor: 0.6183 (30mg/kg); 164B8 conc. (ng/mg) Predicted means (LS means) Column means: 0.2778 (30mg/kg); 164B8 conc. (ng/mg) Predicted means (LS means) Liver: 0.7550 (60mg/kg); 164B8 conc. (ng/mg) Predicted means (LS means) Adjacent Peritoneum: 3.648 (60mg/kg); 164B8 conc. (ng/mg) Predicted means (LS means) Tumor: 8.005 (60mg/kg); 164B8 conc. (ng/mg) Predicted means (LS means) Column means: 4.136 (60mg/kg)
Bioluminescent imaging (BLI) was performed one week post-inoculation. Based on imaging intensity, mice were re-grouped to ensure six animals per group. The PIN1 inhibitor was administered via intraperitoneal injection at doses of 30 mg/kg or 60 mg/kg, once daily, 5 days per week for 2 weeks. Tumor engraftment and growth were monitored by in vivo BLI. D-luciferin potassium salt was dissolved in sterile PBS to a final concentration of 16.6 mg/mL and mice were injected intraperitoneally with D-luciferin solution (0.139 g luciferin/kg body weight), then imaged 10–15 min after luciferin injection using an IVIS Spectrum Imaging System (Lago X) with identical exposure times and binning settings for all mice. Bioluminescence signal intensity was quantified as total flux (photons/s) within a region of interest (ROI) using Aura image software. BLI was performed once every week during the treatment. After 2 weeks of treatment, mice were euthanized 6 h after the final dose. Blood samples were collected via cardiac puncture, and normal peritoneum, intestine, and liver tissues were harvested and snap-frozen on dry ice.

T1 sequence (Q9QUR7 whole entry): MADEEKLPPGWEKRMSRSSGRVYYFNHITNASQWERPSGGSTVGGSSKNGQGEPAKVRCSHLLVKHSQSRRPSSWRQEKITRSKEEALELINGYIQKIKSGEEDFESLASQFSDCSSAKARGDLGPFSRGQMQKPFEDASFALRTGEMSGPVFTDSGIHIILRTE

Which “DC50 of Pin1 degradation” value [1] does the source give for `CNC(=O)[C@H](Cc1c[nH]c2ccccc12)NC(=O)[C@@H]1CCCCN1C(=O)[C@H](Cc1c[nH]c2cc(Cl)ccc12)NC(=O)CCl` [164B8] (ClAc-[Trp(6-Cl)]-[Pip]-Trp-NHMe) here?
The value was “sub-micromolar”.

What about the “164B8 conc. (ng/mg) Predicted means (LS means) Adjacent Peritoneum” value ([2]; 30mg/kg) of the same compound?
Its value is 0.1133 ng/mg.

What about the “164B8 conc. (ng/mg) Predicted means (LS means) Liver” value ([2]; 30mg/kg) of the same compound?
The value was 0.1017 ng/mg.

What about the “164B8 conc. (ng/mg) Predicted means (LS means) Tumor” value ([2]; 30mg/kg) of the same compound?
The value was 0.6183 ng/mg.

What about the “164B8 conc. (ng/mg) Predicted means (LS means) Adjacent Peritoneum” value ([2]; 60mg/kg) of the same compound?
Its value is 3.648 ng/mg.

What about the “164B8 conc. (ng/mg) Predicted means (LS means) Liver” value ([2]; 60mg/kg) of the same compound?
Its value is 0.7550 ng/mg.

What about the “164B8 conc. (ng/mg) Predicted means (LS means) Tumor” value ([2]; 60mg/kg) of the same compound?
The value was 8.005 ng/mg.

And the “164B8 conc. (ng/mg) Predicted means (LS means) Column means” value ([2]; 60mg/kg, mean over liver, adjacent peritoneum and tumor (Figure 7B))?
The value was 4.136 ng/mg.
